# Test results published in BindingDB's records for doi:10.1021/acs.jmedchem.3c00363 (University of Regensburg, 2023).
# Starred links: 1 amine or outer side, 2 acyl side, 3 side chain; linkers in the order of their positions; H or OH if unused. Non-standard residues stand in square brackets, D forms with d. Residues, ends and D or L forms follow the SMILES beside them. X1 = O=C([C@@H]1C[C@@H](c2ccccc2)[C@@H]1CN[*:1])[*:2]; X2 = O=C([C@H]1C[C@H](c2ccccc2)[C@H]1CN[*:1])[*:2]
# Target: Neuropeptide Y receptor type 1 (Homo sapiens) (UniProt P25929)
# Assay: Displacement of [3H]UR-MK299 from human Y1 receptor expressed in human SK-N-MC cells measured after 90 mins by MicroBeta plate counter based competition binding assay
# Chain of Neuropeptide Y receptor type 1 (Homo sapiens) (P25929 whole entry, looked up): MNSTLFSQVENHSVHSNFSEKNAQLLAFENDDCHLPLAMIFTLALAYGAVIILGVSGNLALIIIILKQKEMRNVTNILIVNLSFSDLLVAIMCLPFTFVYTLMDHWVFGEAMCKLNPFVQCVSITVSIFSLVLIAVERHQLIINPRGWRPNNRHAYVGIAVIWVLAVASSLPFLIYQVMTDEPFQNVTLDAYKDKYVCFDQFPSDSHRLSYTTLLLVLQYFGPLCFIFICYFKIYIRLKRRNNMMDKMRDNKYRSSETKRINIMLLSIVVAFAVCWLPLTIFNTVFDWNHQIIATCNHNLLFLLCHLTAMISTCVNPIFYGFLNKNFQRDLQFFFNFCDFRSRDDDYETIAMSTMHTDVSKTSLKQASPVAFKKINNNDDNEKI
row,Ki,Compound
1,> 1050 nM,CC(=O)N[C@@H](CCCNC(=N)N)C(=O)NC[C@H]1[C@@H](C(=O)N[C@@H](CCCNC(=N)N)C(=O)NC[C@H]2[C@@H](C(=O)N[C@@H](CCCNC(=N)N)C(=O)N[C@@H](Cc3ccc(O)cc3)C(N)=O)C[C@@H]2c2ccccc2)C[C@@H]1c1ccccc1 (Ac-R[X2]R[X2]RY-NH2)
2,1180 nM,CC(=O)N[C@@H](CCCNC(=N)N)C(=O)N[C@@H](Cc1ccc(O)cc1)C(=O)N[C@@H](CCCNC(=N)N)C(=O)N[C@@H](CC(C)C)C(=O)N[C@@H](CCCNC(=N)N)C(=O)N[C@@H](Cc1ccc(O)cc1)C(N)=O
3,> 1000 nM,CC(=O)N[C@@H](CCCNC(=N)N)C(=O)NC[C@@H]1[C@H](C(=O)N[C@@H](CCCNC(=N)N)C(=O)NC[C@@H]2[C@H](C(=O)N[C@@H](CCCNC(=N)N)C(=O)N[C@@H](Cc3ccc(O)cc3)C(N)=O)C[C@H]2c2ccccc2)C[C@H]1c1ccccc1 (Ac-R[X1]R[X1]RY-NH2)
4,230 nM,CC(=O)N[C@@H](CCCNC(=N)N)C(=O)NC[C@@H]1[C@H](C(=O)N[C@@H](CCCNC(=N)N)C(=O)N[C@@H](CC(C)C)C(=O)N[C@@H](CCCNC(=N)N)C(=O)N[C@@H](Cc2ccc(O)cc2)C(N)=O)C[C@H]1c1ccccc1 (Ac-R[X1]RLRY-NH2)
5,> 3000 nM,CC(=O)N[C@@H](CCCNC(=N)N)C(=O)NC[C@H]1[C@@H](C(=O)N[C@@H](CCCNC(=N)N)C(=O)N[C@@H](CC(C)C)C(=O)N[C@@H](CCCNC(=N)N)C(=O)N[C@@H](Cc2ccc(O)cc2)C(N)=O)C[C@@H]1c1ccccc1 (Ac-R[X2]RLRY-NH2)
